Our source for the IC50 values is patent US9499493B2, “2,4-pyrimidinediamine compounds and their uses” (Rigel Pharmaceuticals, Inc., priority 2002, dated 2016).

pIC50: −log10 of the molar value. Some results are limits rather than exact numbers.

This assay deals with cultured human mast cells (CHMC). Put plainly: CHMC low cell density IgE activation: tryptase assay. It is filed as cell-based. To be noted: anti-IgE. The protocol: Pellet CHMC cells (980 rpm, 10 min) and resuspend in pre-warmed MT. Add 65 ul of cells to each 96-well plate. Depending on the degranulation activity for each particular CHMC donor, load 1000-1500 cells/well. Mix four times followed by a 1 hr incubation at 37° C. […] Stimulate cells by adding 25 ul of 6× anti-IgE solution to the appropriate plates. Add 25 ul MT to un-stimulated control wells. Mix twice following addition of the anti-IgE. Incubate at 37° C. for 30 minutes. […] Spin plates at 1000 rpm for 10 min to pellet cells. Transfer 25 ul of supernatant to a 96-well black bottom plate and add 100 ul of freshly diluted tryptase substrate solution to each well. Incubate plates at room temperature for 30 min.
As for `O=C(O)COc1ccc(Nc2ncc(F)c(Nc3ccc4c(c3)OCCO4)n2)cc1` [R926238, N2-(4-Carboxymethyleneoxyphenyl)-N4-(3,4-ethylenedioxyphenyl)-5-fluoro-2,4-pyrimidinediamine], the pIC50 was less than 5.00. The compound `Cc1cc(Nc2ncc(F)c(Nc3ccc(O)c(C)c3)n2)ccc1O` [R926469, N2,N4′-Bis(4-hydroxy-3-methylphenyl)-5-fluoro-2,4-pyrimidinediamine] showed a pIC50 of less than 5.00. With `O=C(O)COc1cccc(Nc2ncc(F)c(Nc3ccc4c(c3)OCCO4)n2)c1` [R926483, N2-(3-Carboxymethyleneoxyphenyl)-N4-(3,4-ethylenedioxyphenyl)-5-fluoro-2,4-pyrimidinediamine] the figure was less than 5.00; with `Oc1cccc(Nc2nc(Nc3ccc4oc(CN5CCNCC5)cc4c3)ncc2F)c1` [R926770, 5-Fluoro-N4-(3-hydroxyphenyl)-N2-[2-(N-piperazinomethylene)benzofuran-5-yl]-2,4-pyrimidinediamine], 6.23. In turn, `O=C(COc1cccc(Nc2ncc(F)c(Nc3cccc(O)c3)n2)c1)N1CCNCC1` [R926772, 5-Fluoro-N4-(3-hydroxyphenyl)-N2-[3-(N-piperazino)carbonylmethyleneoxyphenyl]-2,4-pyrimidinediamine] had a pIC50 of 6.47.

For `CNC(=O)COc1cccc(Nc2ncc(F)c(Nc3ccc(C#N)c(C)c3)n2)c1` [R926851, N4-(4-Cyano-3-methylphenyl)-5-fluoro-N2-[3-(N-methylamino)carbonylmethyleneoxyphenyl]-2,4-pyrimidinediamine], the pIC50 is 6.35. This pIC50 and that of the compound before are within 0.2 log units of each other.

In turn, `COc1cc(Nc2nc(Nc3cccc(O)c3)ncc2F)c(OC)cc1Cl` [R926860, N4-(4-Chloro-2,5-dimethoxyphenyl)-5-fluoro-N2-(3-hydroxyphenyl)-2,4-primidinediamine] had a pIC50 of 5.71. The figure for `CNC(=O)COc1cccc(Nc2ncc(F)c(Nc3cccc(-c4nnc(-c5ccccc5)o4)c3)n2)c1` [R926870, 5-Fluoro-N2-[3-(N-methylamino)carbonylmethyleneoxyphenyl]-N4-[3-(2-phenyl-1,3,4-oxadiazol-5-yl)phenyl]-2,4-pyrimidinediamine] is 5.48; for `CNC(=O)COc1cccc(Nc2ncc(F)c(Nc3cccc(-c4nnc(-c5cccc(Cl)c5)o4)c3)n2)c1` [R926871, N4-[3-(2-(3-Chlorophenyl)-1,3,4-oxadiazol-5-yl)phenyl]-5-fluoro-N2-[3-(N-methylamino)carbonylmethyleneoxyphenyl]-2,4-pyrimidinediamine] it is 5.67. Take `CNC(=O)COc1cccc(Nc2ncc(F)c(Nc3ccc4cc(C(=O)OC)[nH]c4c3)n2)c1` [R926904, 5-Fluoro-N2-[3-[(N-methylamino)carbonylmethyleneoxy]phenyl]-N4-[2-(methoxycarbonyl)-(1H)-indol-6-yl]-2,4-pyrimidinediamine]: the pIC50 is 6.27. With `CCOC(=O)C(C)(C)Oc1cccc(Nc2ncc(F)c(Nc3cccc(O)c3)n2)c1` [R926906, N2-[3-(Ethoxycarbonyl-1,1-dimethylmethyleneoxy)phenyl]-5-fluoro-N4-(3-hydroxyphenyl)-2,4-pyrimidinediamine] the figure was 6.10. In the case of `CCOC(=O)C(C)(C)Oc1cccc(Nc2ncc(F)c(Nc3ccc4c(c3)OCCO4)n2)c1` [R926907, N2-[3-(Ethoxycarbonyl-1,1-dimethylmethyleneoxy)phenyl]-N4-(3,4-ethylenedioxyphenyl)-5-fluoro-2,4-pyrimidinediamine], the negative logarithm of the IC50 (pIC50) was 6.12. With `CCOC(=O)C(C)(C)Oc1cccc(Nc2ncc(F)c(Nc3ccc(C)c(O)c3)n2)c1` [R926908, N2-[3-(Ethoxycarbonyl-1,1-dimethylmethyleneoxy)phenyl]-5-fluoro-N4-(3-hydroxy-4-methylphenyl)-2,4-pyrimidinediamine] the figure was 6.23.

Compound `CCOC(=O)C(C)(C)Oc1cccc(Nc2ncc(F)c(Nc3ccc4cc[nH]c4c3)n2)c1` [R926909, N2-[3-(Ethoxycarbonyl-1,1-dimethylmethyleneoxy)phenyl]-5-fluoro-N4-[(1H)-indol-6-yl]-2,4-pyrimidinediamine] gave a pIC50 of 6.42.
